The results in this text go back to article PMC11268196, “Biochemical characterization of ClpB and DnaK from Anaplasma phagocytophilum” (Cell Stress & Chaperones, 2024).

The target in experiment [1] is EcK (E. coli DnaK) (Escherichia coli, UniProt P0A6Y8). The note with it: 5 mM ATP, 20 mM MgCl2, pH 7.4, 37 °C; basal (no casein or poly-lysine).
The target of experiment [2] is T1, ApK (A. phagocytophilum DnaK) (Anaplasma phagocytophilum, UniProt Q2GKZ8).
T1 sequence (Q2GKZ8 1-645): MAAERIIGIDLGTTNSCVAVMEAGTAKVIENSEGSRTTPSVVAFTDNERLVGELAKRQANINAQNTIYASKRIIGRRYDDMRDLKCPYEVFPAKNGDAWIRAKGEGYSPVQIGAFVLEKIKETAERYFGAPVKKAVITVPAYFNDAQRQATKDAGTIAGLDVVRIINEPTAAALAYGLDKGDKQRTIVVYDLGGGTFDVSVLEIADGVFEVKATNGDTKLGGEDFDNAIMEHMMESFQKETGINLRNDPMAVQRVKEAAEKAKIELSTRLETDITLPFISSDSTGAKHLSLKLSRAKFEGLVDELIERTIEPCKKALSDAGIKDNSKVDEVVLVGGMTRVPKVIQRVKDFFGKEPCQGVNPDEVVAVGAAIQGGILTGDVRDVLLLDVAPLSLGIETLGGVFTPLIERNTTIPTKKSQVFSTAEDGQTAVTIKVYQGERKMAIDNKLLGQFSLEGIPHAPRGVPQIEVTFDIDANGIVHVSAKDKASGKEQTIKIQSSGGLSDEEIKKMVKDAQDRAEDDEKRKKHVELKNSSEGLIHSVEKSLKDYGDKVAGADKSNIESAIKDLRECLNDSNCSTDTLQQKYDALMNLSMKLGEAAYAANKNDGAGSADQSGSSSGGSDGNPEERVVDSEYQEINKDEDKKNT
The experiment is described as follows: malachite green phosphate release (ATPase). The experiment is classed as biochemical. The note with it: 5 mM ATP, 20 mM MgCl2, pH 7.4, 37 °C; basal (no casein or poly-lysine).

Experiment [3] addresses EcB (E. coli ClpB) (Escherichia coli, UniProt P63284). The experiment in a line: malachite green phosphate release (ATPase). Format: biochemical. The following applies: 5 mM ATP, 20 mM MgCl2, pH 7.4, 37 °C; basal (no casein or poly-lysine).
Experiment [4] concerns the target T2, ApB (A. phagocytophilum ClpB) (Anaplasma phagocytophilum, UniProt Q2GL99).
T2 sequence (Q2GL99 1-859): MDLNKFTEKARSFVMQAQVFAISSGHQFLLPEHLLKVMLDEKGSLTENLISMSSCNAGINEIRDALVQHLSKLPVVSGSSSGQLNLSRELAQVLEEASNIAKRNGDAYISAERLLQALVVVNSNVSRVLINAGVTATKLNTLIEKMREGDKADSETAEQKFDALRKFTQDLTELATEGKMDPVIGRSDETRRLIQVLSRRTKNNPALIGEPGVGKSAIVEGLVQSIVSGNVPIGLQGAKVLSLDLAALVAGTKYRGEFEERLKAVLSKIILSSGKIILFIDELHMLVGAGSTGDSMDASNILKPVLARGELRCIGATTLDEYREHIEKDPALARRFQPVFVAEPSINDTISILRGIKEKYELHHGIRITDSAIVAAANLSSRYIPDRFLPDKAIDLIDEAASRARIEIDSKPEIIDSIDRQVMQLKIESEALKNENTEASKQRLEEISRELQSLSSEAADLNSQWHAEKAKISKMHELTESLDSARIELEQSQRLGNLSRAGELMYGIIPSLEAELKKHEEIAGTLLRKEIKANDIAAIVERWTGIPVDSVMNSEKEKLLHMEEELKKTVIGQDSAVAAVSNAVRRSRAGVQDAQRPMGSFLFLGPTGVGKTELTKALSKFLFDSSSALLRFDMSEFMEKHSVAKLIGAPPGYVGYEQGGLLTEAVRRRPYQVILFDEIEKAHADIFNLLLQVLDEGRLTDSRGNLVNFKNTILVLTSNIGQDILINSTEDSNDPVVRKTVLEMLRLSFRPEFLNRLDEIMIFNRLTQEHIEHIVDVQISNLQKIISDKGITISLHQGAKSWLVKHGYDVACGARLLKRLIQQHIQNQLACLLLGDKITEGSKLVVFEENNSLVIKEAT
The following applies: 5 mM ATP, 20 mM MgCl2, pH 7.4, 37 °C; basal (no casein or poly-lysine).

For experiment [5], the target named is T1, ApK (A. phagocytophilum DnaK). The experiment is described as follows: fluorescence anisotropy of FITC-labeled peptide B2 (nucleotide effect on peptide binding). The note with it: 2 mM ADP; indirect read-out through labelled peptide B2.

Sequence of EcB (E. coli ClpB) (P63284 whole entry): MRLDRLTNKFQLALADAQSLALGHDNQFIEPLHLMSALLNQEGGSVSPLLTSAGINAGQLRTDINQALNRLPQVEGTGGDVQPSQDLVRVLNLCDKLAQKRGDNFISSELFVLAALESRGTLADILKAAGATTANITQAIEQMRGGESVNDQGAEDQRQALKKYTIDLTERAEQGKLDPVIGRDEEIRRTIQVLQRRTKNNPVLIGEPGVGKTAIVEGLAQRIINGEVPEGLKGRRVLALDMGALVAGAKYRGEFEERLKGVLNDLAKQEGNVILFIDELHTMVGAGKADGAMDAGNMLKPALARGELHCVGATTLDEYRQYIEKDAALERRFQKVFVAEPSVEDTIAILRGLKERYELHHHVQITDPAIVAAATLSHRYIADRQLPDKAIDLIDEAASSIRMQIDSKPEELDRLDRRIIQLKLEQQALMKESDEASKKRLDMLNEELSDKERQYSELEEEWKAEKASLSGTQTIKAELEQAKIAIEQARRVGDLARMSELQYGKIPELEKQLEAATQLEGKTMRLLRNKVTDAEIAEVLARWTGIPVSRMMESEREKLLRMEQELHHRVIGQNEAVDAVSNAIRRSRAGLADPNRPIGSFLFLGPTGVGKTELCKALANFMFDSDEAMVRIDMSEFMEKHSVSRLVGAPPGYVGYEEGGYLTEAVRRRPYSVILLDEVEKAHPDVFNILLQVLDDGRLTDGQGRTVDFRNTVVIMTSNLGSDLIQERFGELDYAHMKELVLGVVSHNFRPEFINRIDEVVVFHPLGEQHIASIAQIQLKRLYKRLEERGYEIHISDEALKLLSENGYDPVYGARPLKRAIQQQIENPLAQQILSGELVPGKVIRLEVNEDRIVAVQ
Sequence of EcK (E. coli DnaK) (P0A6Y8 2-638): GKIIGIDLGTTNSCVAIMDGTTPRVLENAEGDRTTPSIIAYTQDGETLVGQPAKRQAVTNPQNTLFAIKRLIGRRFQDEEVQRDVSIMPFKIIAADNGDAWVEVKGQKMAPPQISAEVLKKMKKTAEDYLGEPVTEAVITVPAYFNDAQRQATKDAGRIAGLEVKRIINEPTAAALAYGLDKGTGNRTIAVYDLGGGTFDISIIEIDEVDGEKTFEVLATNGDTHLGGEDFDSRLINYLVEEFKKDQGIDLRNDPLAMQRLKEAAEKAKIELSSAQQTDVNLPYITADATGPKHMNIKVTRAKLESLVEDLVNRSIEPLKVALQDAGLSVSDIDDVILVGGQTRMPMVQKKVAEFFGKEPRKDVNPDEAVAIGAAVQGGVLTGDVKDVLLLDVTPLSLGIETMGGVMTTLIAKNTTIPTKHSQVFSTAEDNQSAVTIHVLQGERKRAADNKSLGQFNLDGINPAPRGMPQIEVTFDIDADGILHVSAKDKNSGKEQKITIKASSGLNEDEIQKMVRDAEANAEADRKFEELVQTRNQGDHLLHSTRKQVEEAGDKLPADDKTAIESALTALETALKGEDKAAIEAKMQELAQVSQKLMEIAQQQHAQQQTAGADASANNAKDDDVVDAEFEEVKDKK

In the case of `Nc1ncnc2c1ncn2[C@@H]1O[C@H](COP(=O)(O)OP(=O)(O)OP(=O)(O)O)[C@@H](O)[C@H]1O` [ATP], the ATPase activity result in experiment [1] is recorded as “The basal ATPase activity of ApK was lower than that of EcK”; in experiment [2], “The basal ATPase activity of ApK was lower than that of EcK”; in experiment [3], “the basal ATPase activity of ApB exceeded that of EcB”; in experiment [4], “the basal ATPase activity of ApB exceeded that of EcB”.

As for `Nc1ncnc2c1ncn2[C@@H]1O[C@H](COP(=O)(O)OP(=O)(O)O)[C@@H](O)[C@H]1O` [ADP], in experiment [5], the “fluorescence anisotropy of FITC-labeled peptide B2 (nucleotide effect on peptide)” value is listed as “ADP induced a strong binding of B2 to ApK”.
